Common to all, as to assay type: physicochemical
Data set [1] is described as follows: Dynamic Vapor Sorption (DVS), hygroscopicity of polymorphic forms. The conditions noted are these: for form change during DVS cycling / post-DVS (XRPD): XRPD of retained solid. The protocol:
Dynamic Vapor Sorption (DVS) was used to determine the hygroscopicity of stable polymorphic forms. Approximately 10-20 milligrams of sample was placed in to a mesh vapor sorption balance pan and loaded into an intrinsic dynamic vapor sorption balance by Surface Measurement Systems. The sample was subjected to ramping profile from 40-90% relative humidity (RH) at 10% increments, maintain the sample at each step until as table weight had been achieved (dm/dt 0.0004%, minimum step length 30 minutes, maximum step length 500 minutes) at 25° C. After completion of the sorption cycle, the sample was dried using the same procedure to 0% RH and then a second sorption cycle back to 40% RH. Two cycles were performed. The weight change during the sorption/desorption cycles were plotted, allowing for the hygroscopic nature of the sample tot be determined. XRPD was then carried out on any solid retained to determine if there was change between polymorphic forms during the process.

The nature of data set [2]: Competitive slurry, thermodynamic stability of crystalline forms. The following applies: competitive slurry conditions, Form III seeds present; monobenzenesulfonate.
The nature of data set [3]: Solubility in aqueous solutions. The following applies: aqueous solutions at neutral pH.
The nature of data set [4]: TGA/DSC, thermal degradation. The conditions noted are these: 10° C./min. As for the experimental part: Thermogravimetric Analysis/Differential Scanning calorimetry (TGA/DSC) was used to determine the phase transition and degradation points as well as the hydrated/solvated states of the various polymorphic forms identified. Approximately 5-10 milligrams of material was added into a pre-tared open aluminum pan and loaded into a TA Instruments SDT 650 Auto-Simultaneous DSC and held at room temperature. The sample was then heated at a rate of 10° C./min from 30° C. to 400° C. during which time the change in sample weight was recorded along with the heat flow response (DSC). Nitrogen was used as the sample purge gas, at a flow rate of 200 cm^3/min. Skilled artisans will appreciate that ambient laboratory conditions may cause slight variability in these readings.

The mark [5] stands for this setting: DVS at 90% relative humidity, 25° C., monobenzenesulfonate.
The mark [6] stands for this setting: DVS, 25° C., monobenzenesulfonate.

This note sets out measurements from patent US12486256B2, “Crystal forms of crenolanib and methods of use thereof” (Arog Pharmaceuticals, Inc., priority 2020, dated 2025).

Regarding `CC1(COc2ccc3c(c2)ncn3-c2ccc3cccc(N4CCC(N)CC4)c3n2)COC1.O=S(=O)(O)c1ccccc1` [Form III, 1-[2-[5-[(3-Methyl-3-oxetanyl)methoxy]-1H-benzimidazol-1-yl]-8-quinolinyl]-4-piperidinamine monobenzenesulfonate], the mass uptake entry in data set [1] (setting [5]) was “approximately 1.5%”. Moreover, the “form change during DVS cycling / post-DVS (XRPD)” value in data set [1] (monobenzenesulfonate) is given as “No form change”. The hygroscopicity entry in data set [1] (setting [6]) is recorded as “slightly hygroscopic”. Also, the “thermodynamic stability / form conversion” value in data set [2] is recorded as “most thermodynamically stable crystalline form”.

For the molecule `CC1(COc2ccc3c(c2)ncn3-c2ccc3cccc(N4CCC(N)CC4)c3n2)COC1.O=S(=O)(O)c1ccccc1` [Form II, 1-[2-[5-[(3-Methyl-3-oxetanyl)methoxy]-1H-benzimidazol-1-yl]-8-quinolinyl]-4-piperidinamine monobenzenesulfonate], the mass uptake result in data set [1] (setting [5]) is recorded as “approximately 1.5%”. Moreover, the “form change during DVS cycling / post-DVS (XRPD)” value in data set [1] (monobenzenesulfonate) was “No form change”. Further, the hygroscopicity entry in data set [1] (setting [6]) is given as “slightly hygroscopic”. Further, the “solubility relative to other forms” value in data set [3] is “more soluble in aqueous solutions at neutral pH than the anhydrous Forms I and III”. In addition, the “onset of thermal degradation” value in data set [4] came to 165 °C.

Take `CC1(COc2ccc3c(c2)ncn3-c2ccc3cccc(N4CCC(N)CC4)c3n2)COC1.O=S(=O)(O)c1ccccc1` [Form I, 1-[2-[5-[(3-Methyl-3-oxetanyl)methoxy]-1H-benzimidazol-1-yl]-8-quinolinyl]-4-piperidinamine monobenzenesulfonate]: the “form change during DVS cycling / post-DVS (XRPD)” value in data set [1] (monobenzenesulfonate) is “No form change”. In addition, the hygroscopicity entry in data set [1] (setting [6]) was “non-hygroscopic”. Also, the “thermodynamic stability / form conversion” value in data set [2] is “will convert to Form III”.

As to `CC1(COc2ccc3c(c2)ncn3-c2ccc3cccc(N4CCC(N)CC4)c3n2)COC1.O=S(=O)(O)c1ccccc1` [Form IV, 1-[2-[5-[(3-Methyl-3-oxetanyl)methoxy]-1H-benzimidazol-1-yl]-8-quinolinyl]-4-piperidinamine monobenzenesulfonate], the “form change during DVS cycling / post-DVS (XRPD)” value in data set [1] (monobenzenesulfonate) is on record as “converts to the hemi-hydrated Form II”. Also, in data set [1] (setting [6]), the hygroscopicity result is on record as “hygroscopic”. The mass uptake in data set [1] (DVS, desolvated form, between 0% and 10% humidity) was 1.5%. Besides, the “mass loss (desolvation)” value in data set [1] (DVS, during the first cycle) was determined as 9.4%. Further, the “onset of thermal degradation” value in data set [4] (monobenzenesulfonate) stood at 241 °C.
